Results as given in ChEMBL document CHEMBL4350982, “Multi-target design strategies for the improved treatment of Alzheimer's disease” (Eur J Med Chem, 2019).

How the values were obtained:
Acetylcholinesterase [1] = molecular target: T1, Acetylcholinesterase (Rattus norvegicus, UniProt P37136); test: Inhibition of AChE from rat cortex by Ellman's method
T1 sequence (P37136 whole entry): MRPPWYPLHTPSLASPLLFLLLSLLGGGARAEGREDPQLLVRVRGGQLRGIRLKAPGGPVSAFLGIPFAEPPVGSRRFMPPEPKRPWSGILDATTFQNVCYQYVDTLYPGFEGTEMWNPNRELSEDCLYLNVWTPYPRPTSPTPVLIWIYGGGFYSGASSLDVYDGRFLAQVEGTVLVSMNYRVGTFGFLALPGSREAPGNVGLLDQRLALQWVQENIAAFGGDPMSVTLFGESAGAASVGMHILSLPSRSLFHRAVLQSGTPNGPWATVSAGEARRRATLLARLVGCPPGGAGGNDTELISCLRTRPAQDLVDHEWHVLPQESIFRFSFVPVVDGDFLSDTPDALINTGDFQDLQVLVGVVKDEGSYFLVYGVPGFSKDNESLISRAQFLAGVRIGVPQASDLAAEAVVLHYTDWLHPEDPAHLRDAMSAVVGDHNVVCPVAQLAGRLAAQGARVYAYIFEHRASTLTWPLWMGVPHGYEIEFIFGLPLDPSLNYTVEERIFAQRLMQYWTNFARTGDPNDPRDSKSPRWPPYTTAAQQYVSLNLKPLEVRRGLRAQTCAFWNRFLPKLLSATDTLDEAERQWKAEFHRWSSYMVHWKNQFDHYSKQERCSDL

Acetylcholinesterase [2] = molecular target: T2, Acetylcholinesterase (Electrophorus electricus, UniProt O42275); test: Inhibition of electric eel AChE using acetylthiocholine as substrate measured for 3.2 mins by Ellman's method
T2 sequence (O42275 whole entry): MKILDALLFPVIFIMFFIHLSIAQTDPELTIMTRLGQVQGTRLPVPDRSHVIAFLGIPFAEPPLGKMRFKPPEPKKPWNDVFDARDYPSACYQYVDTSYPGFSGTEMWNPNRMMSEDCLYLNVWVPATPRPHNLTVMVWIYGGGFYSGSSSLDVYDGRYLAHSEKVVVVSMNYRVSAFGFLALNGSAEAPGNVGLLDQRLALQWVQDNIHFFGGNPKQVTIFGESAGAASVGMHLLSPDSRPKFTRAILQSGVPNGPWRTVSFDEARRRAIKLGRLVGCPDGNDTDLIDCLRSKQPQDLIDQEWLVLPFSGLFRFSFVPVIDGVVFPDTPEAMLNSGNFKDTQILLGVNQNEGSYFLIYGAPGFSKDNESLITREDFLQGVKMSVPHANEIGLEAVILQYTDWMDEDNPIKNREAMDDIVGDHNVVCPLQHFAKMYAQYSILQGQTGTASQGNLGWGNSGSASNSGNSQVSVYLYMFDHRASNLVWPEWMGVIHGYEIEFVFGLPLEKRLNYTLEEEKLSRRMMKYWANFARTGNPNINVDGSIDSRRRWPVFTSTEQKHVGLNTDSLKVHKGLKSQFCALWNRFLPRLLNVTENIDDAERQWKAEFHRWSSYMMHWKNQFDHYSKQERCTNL

Acetylcholinesterase [3] = molecular target: T3, Acetylcholinesterase (Homo sapiens, UniProt P22303); test: Inhibition of AChE (unknown origin)
T3 sequence (P22303 whole entry): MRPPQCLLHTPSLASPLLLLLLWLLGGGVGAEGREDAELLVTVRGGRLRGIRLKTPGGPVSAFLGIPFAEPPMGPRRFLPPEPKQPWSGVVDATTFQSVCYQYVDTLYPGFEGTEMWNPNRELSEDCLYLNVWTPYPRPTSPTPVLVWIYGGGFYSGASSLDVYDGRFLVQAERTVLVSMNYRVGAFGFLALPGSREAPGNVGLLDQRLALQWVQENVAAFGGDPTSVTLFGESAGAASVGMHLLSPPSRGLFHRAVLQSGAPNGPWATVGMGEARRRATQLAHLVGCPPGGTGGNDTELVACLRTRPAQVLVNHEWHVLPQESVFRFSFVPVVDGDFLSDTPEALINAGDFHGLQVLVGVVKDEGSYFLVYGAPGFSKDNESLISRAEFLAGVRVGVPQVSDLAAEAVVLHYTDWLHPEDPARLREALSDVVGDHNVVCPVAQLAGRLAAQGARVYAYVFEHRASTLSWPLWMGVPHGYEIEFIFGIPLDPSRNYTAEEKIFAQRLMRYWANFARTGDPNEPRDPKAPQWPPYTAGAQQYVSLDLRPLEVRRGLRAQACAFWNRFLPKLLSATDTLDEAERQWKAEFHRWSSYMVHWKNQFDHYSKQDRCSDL

[4] = molecular target: Amyloid-beta precursor protein (Homo sapiens) (UniProt P05067); test: Inhibition of beta amyloid (unknown origin) self-induced aggregation at 10 uM relative to control
Sequence of Amyloid-beta precursor protein (Homo sapiens) (P05067 whole entry): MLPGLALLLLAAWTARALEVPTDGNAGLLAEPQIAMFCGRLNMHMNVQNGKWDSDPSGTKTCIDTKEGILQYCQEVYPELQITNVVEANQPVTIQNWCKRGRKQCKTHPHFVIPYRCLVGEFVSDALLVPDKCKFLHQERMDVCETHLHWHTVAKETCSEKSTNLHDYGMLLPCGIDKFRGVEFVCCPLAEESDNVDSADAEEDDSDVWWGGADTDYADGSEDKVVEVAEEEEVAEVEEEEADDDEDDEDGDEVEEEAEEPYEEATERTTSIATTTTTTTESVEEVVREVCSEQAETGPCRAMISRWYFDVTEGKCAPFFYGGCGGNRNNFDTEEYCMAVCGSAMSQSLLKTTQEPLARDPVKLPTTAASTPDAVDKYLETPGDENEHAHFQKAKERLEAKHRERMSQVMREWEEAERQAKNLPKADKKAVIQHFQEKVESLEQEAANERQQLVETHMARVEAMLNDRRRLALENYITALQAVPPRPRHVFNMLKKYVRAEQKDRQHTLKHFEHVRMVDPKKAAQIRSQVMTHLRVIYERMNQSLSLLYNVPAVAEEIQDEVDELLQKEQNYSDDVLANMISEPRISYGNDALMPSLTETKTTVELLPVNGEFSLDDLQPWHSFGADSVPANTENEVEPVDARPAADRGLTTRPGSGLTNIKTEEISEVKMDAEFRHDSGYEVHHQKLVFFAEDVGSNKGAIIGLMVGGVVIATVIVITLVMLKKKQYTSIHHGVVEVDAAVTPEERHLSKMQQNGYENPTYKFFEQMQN

Acetylcholinesterase [5] = molecular target: T2, Acetylcholinesterase; test: Inhibition of electric eel AChE using acetylthiocholine chloride as substrate preincubated for 15 mins followed by substrate addition
Acetylcholinesterase [6] = molecular target: T3, Acetylcholinesterase; test: Inhibition of recombinant human AChE
[7] = molecular target: T4, Amine oxidase [flavin-containing] B (Homo sapiens, UniProt P27338); test: Irreversible inhibition of MAOB (unknown origin)
T4 sequence (P27338 whole entry): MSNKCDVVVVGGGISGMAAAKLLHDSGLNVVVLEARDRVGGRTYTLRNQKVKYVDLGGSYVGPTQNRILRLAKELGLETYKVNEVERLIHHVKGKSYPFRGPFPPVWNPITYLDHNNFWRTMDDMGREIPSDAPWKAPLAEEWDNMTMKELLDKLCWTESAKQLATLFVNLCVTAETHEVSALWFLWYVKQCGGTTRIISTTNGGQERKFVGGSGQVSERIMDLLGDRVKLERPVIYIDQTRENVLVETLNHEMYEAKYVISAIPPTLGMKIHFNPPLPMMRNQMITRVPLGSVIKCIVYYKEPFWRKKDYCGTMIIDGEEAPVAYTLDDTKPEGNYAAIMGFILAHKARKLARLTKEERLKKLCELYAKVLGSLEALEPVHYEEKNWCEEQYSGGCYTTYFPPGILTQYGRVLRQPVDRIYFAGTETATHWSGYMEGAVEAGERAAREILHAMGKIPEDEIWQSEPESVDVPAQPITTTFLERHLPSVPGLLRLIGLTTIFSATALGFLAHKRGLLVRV

Beta-secretase 1 [8] = molecular target: T5, Beta-secretase 1 (Homo sapiens, UniProt P56817); test: Inhibition of recombinant human BACE-1
T5 sequence (P56817 whole entry): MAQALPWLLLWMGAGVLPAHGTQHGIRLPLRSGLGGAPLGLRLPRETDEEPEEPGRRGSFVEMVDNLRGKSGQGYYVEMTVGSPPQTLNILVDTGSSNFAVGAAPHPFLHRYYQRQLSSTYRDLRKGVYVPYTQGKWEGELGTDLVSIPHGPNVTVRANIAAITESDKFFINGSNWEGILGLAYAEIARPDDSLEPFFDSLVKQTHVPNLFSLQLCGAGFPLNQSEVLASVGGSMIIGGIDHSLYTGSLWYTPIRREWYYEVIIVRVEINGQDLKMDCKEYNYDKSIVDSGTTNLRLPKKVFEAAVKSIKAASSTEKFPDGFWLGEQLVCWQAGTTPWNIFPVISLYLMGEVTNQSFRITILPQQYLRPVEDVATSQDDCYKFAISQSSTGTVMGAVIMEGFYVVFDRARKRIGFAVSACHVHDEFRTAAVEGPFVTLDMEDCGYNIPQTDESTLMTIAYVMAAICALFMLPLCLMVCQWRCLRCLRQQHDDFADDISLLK

HepG2 = test: Cytotoxicity against human HepG2 cells assessed as reduction in cell viability by MTT assay; type: cell-based
CHO-K1 = test: Cytotoxicity against CHOK1 cells assessed as reduction in cell viability by MTT assay; type: cell-based; conditions: Cricetulus griseus
[9] = molecular target: T6, Amine oxidase [flavin-containing] A (Homo sapiens, UniProt P21397); test: Irreversible inhibition of MAOA (unknown origin)
T6 sequence (P21397 whole entry): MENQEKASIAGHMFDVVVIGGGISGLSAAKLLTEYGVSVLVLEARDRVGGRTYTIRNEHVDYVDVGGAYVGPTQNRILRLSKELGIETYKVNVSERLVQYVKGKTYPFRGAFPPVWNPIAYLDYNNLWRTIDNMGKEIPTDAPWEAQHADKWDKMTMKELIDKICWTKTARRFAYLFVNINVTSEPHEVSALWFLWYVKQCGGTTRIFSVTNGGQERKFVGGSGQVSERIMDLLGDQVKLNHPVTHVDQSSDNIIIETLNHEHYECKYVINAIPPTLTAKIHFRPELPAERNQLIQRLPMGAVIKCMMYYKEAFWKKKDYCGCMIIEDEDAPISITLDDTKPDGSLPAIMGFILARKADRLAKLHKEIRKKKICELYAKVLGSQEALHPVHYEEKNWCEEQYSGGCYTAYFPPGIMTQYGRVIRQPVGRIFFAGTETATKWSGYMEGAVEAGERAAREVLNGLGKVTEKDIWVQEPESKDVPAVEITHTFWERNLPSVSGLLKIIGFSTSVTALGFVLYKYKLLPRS

Acetylcholinesterase [10] = molecular target: T3, Acetylcholinesterase; test: Irreversible inhibition of AChE (unknown origin)
[11] = molecular target: T4, Amine oxidase [flavin-containing] B; test: Mixed type inhibition of MAOB (unknown origin)
[12] = molecular target: T6, Amine oxidase [flavin-containing] A; test: Mixed type inhibition of MAOA (unknown origin)
Beta-secretase 1 [13] = molecular target: T5, Beta-secretase 1; test: Irreversible inhibition of BACE-1 (unknown origin)
[14] = Half life in Alzheimer's disease patient at 2 mg/ml, po; type: ADME; conditions: human, in vivo
[15] = Drug excretion in Alzheimer's disease patient urine at 2 mg/ml, po; type: ADME, tissue-based; conditions: human, read-out: Drug excretion
[16] = Oral bioavailability in Alzheimer's disease patient at 2 mg/ml; type: ADME, organism-based; conditions: human, in vivo
Beta-secretase 1 [17] = molecular target: T5, Beta-secretase 1; test: Inhibition of BACE-1 (unknown origin)
[18] = molecular target: Glutamate [NMDA] receptor; test: Inhibition of NMDA receptor (unknown origin); type: protein-complex assay, Homo sapiens
[19] = molecular target: Amyloid-beta precursor protein (Homo sapiens) (UniProt P05067); test: Inhibition of beta amyloid (unknown origin) self-induced aggregation relative to control; conditions: concentration not given here
[20] = molecular target: Glutamate [NMDA] receptor; test: Displacement of [3H]-MK-801 from NMDA receptor (unknown origin) by scintillation counting method; type: protein-complex assay, Homo sapiens
[21] = molecular target: Glutamate [NMDA] receptor; test: Displacement of [3H]-ifenprodil from NMDA receptor (unknown origin) by scintillation counting method; type: protein-complex assay, Homo sapiens
Cholinesterase = Cholinesterase (Equus caballus, UniProt P81908); test: Inhibition of equine serum BChE using butyrylthiocholine iodide as substrate preincubated for 10 mins followed by substrate addition by Ellman's method
Acetylcholinesterase [22] = molecular target: T3, Acetylcholinesterase; test: Inhibition of recombinant human AChE using acetylthiocholine as substrate by UV-visible absorption method
Beta-secretase 1 [23] = molecular target: T5, Beta-secretase 1; test: Inhibition of BACE-1 (unknown origin) after 60 mins by FRET assay
[24] = molecular target: High affinity cGMP-specific 3',5'-cyclic phosphodiesterase 9A (Homo sapiens, UniProt O76083); test: Inhibition of PDE9A2 (unknown origin) by immobilized metal ion affinity-based fluorescence polarization
Sequence of High affinity cGMP-specific 3',5'-cyclic phosphodiesterase 9A (O76083 whole entry): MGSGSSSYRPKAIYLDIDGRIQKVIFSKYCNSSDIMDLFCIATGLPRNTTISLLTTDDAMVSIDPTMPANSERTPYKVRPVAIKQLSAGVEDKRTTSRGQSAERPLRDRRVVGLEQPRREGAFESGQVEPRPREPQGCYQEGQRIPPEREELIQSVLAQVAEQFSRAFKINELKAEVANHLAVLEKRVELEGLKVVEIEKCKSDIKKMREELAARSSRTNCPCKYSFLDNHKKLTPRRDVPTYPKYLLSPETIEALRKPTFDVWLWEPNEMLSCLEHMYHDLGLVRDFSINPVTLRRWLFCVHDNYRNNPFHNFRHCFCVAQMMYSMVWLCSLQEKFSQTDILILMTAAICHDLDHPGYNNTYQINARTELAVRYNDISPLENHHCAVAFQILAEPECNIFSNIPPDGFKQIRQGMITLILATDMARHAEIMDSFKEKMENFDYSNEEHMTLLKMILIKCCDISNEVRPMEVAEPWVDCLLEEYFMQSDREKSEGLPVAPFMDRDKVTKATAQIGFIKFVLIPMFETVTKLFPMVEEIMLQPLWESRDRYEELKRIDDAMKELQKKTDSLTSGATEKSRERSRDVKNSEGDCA

[25] = molecular target: cGMP-inhibited 3',5'-cyclic phosphodiesterase 3A (Homo sapiens, UniProt Q14432); test: Inhibition of PDE3A (unknown origin) by immobilized metal ion affinity-based fluorescence polarization
[26] = Inhibition of PDE4D3 (unknown origin) by immobilized metal ion affinity-based fluorescence polarization; design: species or system Homo sapiens
[27] = molecular target: High affinity 3',5'-cyclic-AMP phosphodiesterase 7A (Homo sapiens, UniProt Q13946); test: Inhibition of PDE7A (unknown origin) by immobilized metal ion affinity-based fluorescence polarization
Butyrylcholinesterase = Butyrylcholinesterase (Rattus norvegicus, UniProt Q9JKC1); test: Inhibition of BuChE from rat serum by Ellman's method
[28] = molecular target: cGMP-specific 3',5'-cyclic phosphodiesterase (Homo sapiens, UniProt O76074); test: Inhibition of PDE5A1 (unknown origin) by immobilized metal ion affinity-based fluorescence polarization
[29] = molecular target: Cone cGMP-specific 3',5'-cyclic phosphodiesterase subunit alpha' (Homo sapiens, UniProt P51160); test: Inhibition of PDE6C (unknown origin) by immobilized metal ion affinity-based fluorescence polarization
Sequence of Cone cGMP-specific 3',5'-cyclic phosphodiesterase subunit alpha' (P51160 whole entry): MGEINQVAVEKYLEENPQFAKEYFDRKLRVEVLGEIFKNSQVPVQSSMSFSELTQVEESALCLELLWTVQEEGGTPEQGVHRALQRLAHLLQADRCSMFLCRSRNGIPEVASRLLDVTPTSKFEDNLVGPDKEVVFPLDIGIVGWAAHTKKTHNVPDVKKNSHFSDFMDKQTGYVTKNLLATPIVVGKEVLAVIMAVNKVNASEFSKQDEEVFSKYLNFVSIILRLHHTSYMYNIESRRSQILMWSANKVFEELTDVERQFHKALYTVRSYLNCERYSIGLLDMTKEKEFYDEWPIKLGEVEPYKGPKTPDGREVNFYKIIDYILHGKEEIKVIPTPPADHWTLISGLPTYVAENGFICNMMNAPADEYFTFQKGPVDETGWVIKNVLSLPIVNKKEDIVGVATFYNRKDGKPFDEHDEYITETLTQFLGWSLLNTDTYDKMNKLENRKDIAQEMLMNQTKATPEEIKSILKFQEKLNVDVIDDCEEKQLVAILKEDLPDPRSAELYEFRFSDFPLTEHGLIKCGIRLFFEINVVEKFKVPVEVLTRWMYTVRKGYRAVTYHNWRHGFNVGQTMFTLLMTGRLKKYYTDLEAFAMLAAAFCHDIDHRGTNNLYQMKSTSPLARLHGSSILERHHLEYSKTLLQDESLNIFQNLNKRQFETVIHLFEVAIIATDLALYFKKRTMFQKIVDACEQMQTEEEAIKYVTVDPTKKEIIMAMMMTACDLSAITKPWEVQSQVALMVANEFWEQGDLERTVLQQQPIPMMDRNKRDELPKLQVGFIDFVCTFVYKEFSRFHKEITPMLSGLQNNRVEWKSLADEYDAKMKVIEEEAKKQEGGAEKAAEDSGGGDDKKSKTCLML

[30] = molecular target: cGMP-dependent 3',5'-cyclic phosphodiesterase (Homo sapiens, UniProt O00408); test: Inhibition of PDE2A1 (unknown origin) by immobilized metal ion affinity-based fluorescence polarization
Sequence of cGMP-dependent 3',5'-cyclic phosphodiesterase (O00408 whole entry): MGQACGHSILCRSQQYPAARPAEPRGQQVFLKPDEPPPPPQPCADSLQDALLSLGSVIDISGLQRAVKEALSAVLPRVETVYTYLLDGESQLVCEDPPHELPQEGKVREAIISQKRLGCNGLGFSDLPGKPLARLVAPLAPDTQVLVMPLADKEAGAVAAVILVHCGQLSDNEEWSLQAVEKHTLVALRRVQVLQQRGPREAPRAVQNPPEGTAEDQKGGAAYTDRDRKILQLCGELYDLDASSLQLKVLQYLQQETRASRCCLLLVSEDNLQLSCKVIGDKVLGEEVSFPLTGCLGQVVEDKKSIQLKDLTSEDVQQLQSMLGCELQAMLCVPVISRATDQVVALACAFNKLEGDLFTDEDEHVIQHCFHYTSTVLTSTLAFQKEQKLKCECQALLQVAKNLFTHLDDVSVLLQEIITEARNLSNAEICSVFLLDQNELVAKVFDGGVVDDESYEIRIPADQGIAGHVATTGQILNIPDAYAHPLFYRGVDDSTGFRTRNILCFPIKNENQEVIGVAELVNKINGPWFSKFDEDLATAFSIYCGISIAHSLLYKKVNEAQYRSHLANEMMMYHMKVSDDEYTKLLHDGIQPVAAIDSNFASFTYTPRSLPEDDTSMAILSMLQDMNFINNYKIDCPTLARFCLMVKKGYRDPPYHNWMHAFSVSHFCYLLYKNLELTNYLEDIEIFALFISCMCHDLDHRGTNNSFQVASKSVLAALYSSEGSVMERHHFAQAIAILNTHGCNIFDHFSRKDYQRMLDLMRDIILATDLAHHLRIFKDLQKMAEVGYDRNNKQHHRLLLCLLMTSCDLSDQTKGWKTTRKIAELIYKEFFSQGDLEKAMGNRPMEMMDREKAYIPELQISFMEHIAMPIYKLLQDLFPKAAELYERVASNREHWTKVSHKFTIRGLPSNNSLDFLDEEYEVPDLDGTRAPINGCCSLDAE

SMILES: CN1CC(=O)N2[C@H](c3ccc4c(c3)OCO4)c3[nH]c4ccccc4c3C[C@@H]2C1=O
- IC50 (Acetylcholinesterase [1]): 26.2 µM

SMILES: Cc1cc(=O)oc2cc(OCCN3CCN(CC(=O)Nc4c5c(nc6ccccc46)CCCC5)CC3)ccc12
- IC50 (Acetylcholinesterase [2]): 92 µM

SMILES: C#CCN(C)Cc1cc2cc(OCCCC3CCN(Cc4ccccc4)CC3)ccc2n1C
- IC50 (Acetylcholinesterase [3]): 0.35 µM
- inhibition [4]: 47.8%

SMILES: COc1ccc(/C=C2\COc3cc(OCCCN4CCCCC4)ccc3C2=O)cc1
- IC50 (Acetylcholinesterase [5]): 3.94 µM

SMILES: COc1ccc2[nH]c3nc4c(c(N)c3c2c1)CCCC4
- IC50 (Acetylcholinesterase [6]): 1.5 µM
- IC50 [7]: 53.9 µM
- IC50 (Beta-secretase 1 [8]): 2.4 µM
- IC50 (HepG2): 1.22 µM
- IC50 (CHO-K1): 5.5 µM
- IC50 [9]: 0.49 µM

SMILES: C#CCN(C)Cc1ccc(O)c2ncccc12
- IC50 (Acetylcholinesterase [10]): 1.8 µM
- IC50 [7]: 10.2 µM
- IC50 [11]: 1.5 µM
- IC50 [9]: 6.2 µM
- IC50 [12]: 57 µM
- IC50 (Beta-secretase 1 [13]): 1.6 µM

SMILES: CC12CC3CC(C)(C1)CC(N)(C3)C2 [MEMANTINE]
- half-life [14]: 60 to 100 h
- dose excreted [15]: 48%
- bioavailability [16]: 100%

SMILES: OC(CNCc1cccc(OCc2ccccc2)c1)Cn1cc(Br)c2cc(Br)ccc21 (stereo not given)
- IC50 (Beta-secretase 1 [17]): 0.97 µM
- IC50 (Acetylcholinesterase [3]): 9.1 µM

SMILES: Cc1ccc2[nH]c3c(c2c1)CN(CCCCCN1CCc2[nH]c4ccc(C)cc4c2C1)CC3
- IC50 [18]: 11 µM
- inhibition [19]: 67%
- IC50 (Acetylcholinesterase [3]): 0.195 µM

SMILES: COc1cc(/C=C/C(O)=C/C(=O)/C=C/c2ccc(OCc3ccccc3)cc2)ccc1O
- IC50 (Beta-secretase 1 [17]): 2.5 µM

SMILES: CCN1CCc2c(c3ccccc3n2CCC(=O)N2c3ccccc3Sc3ccccc32)C1
- IC50 [20]: 14.6 µM
- IC50 [21]: 13.4 µM
- IC50 (Cholinesterase): 0.52 µM

SMILES: COc1ccc(CNC(=O)C2CCN(C(=O)c3ccccc3)CC2)cc1OC
- IC50 (Acetylcholinesterase [22]): 0.00411 µM
- IC50 (Beta-secretase 1 [23]): 0.0183 µM

SMILES: O=C1[C@H]2Cc3c([nH]c4ccccc34)[C@@H](c3ccc4c(c3)OCO4)N2C(=O)CN1CCC1CCN(Cc2ccccc2)CC1
- IC50 [24]: > 100 µM
- IC50 [25]: > 100 µM
- IC50 [26]: > 100 µM
- IC50 [27]: > 100 µM
- IC50 (Butyrylcholinesterase): 3.88 µM
- IC50 [28]: 1.53 µM
- IC50 [29]: > 100 µM
- IC50 [30]: > 100 µM
- IC50 (Acetylcholinesterase [1]): 0.032 µM
